# In patent publication US20170119034A1, “COMPOSITIONS AND METHODS FOR MODIFYING PERCEPTION OF SWEET TASTE” (University of Florida Research Foundation, Inc., priority 2012, published 2017):
# Columns and labels:
# [1] = tested on: perceived sweetness intensity of strawberry fruit (consumer panel); experiment: Strawberry consumer panel: multiple regression of volatile concentration against perceived sweetness intensity independent of glucose, fructose or sucrose; type: in vivo, human; conditions: for FRUCTOSE t RATIO: volatile concentration regressed against perceived sweetness intensity independent of fructose; for GLUCOSE t RATIO: volatile concentration regressed against perceived sweetness intensity independent of glucose; for SUCROSE t RATIO: volatile concentration regressed against perceived sweetness intensity independent of sucrose
# Protocol: Step-wise multiple regressions of all volatile compounds against perceived intensity of sweetness is performed independent of either glucose, fructose, or sucrose concentration, separately (Table 6).
# (§1) All consumer panels were approved by the University of Florida Institutional Review Board. […] Ages of panelist ranged from 18 to 71, with a median age of 24. Panelists self-classified themselves as 98 White or Caucasian, 11 Black or African-American, 1 Native American, Alaska Native or Aleutian, 41 Asian/Pacific Islander, and 15 Other. […] Fresh, fully-ripe strawberry fruit was removed from overnight 4° C. dark storage and allowed to warm to room temperature prior to sensory analysis. Each panelist was given one to two whole strawberries for evaluation, depending on cultivar availability. Panelist took a bite of each sample, chewed, and swallowed it. Ratings for overall liking and liking for texture were scaled on hedonic general labeled magnitude scale (gLMS) in the context of all pleasure/displeasure experiences. […] Scales were employed to mediate valid comparisons across subjects and sessions.
# Multiple regressions were performed with the “enter” method in SPSS for identification of sweetness enhancing volatiles. Individual volatile compound concentrations were regressed using the “enter” method in SPSS Statistics (IBM Corp, Armonk, N.Y., USA).
# [2] = tested on: texture liking of strawberry fruit (consumer panel); experiment: Strawberry consumer panel: bivariate fit to texture liking; type: in vivo, human; conditions: bivariate linear fit; X = content of the substance in strawberry fruit, Y = Texture liking
# Protocol: as §1
# (§2) Bivariate analysis among individual measurements of samples allowed for linear fit, which includes summary of fit, analysis of variance, t-test, and correlation analysis for density ellipse. Two-way Ward hierarchical cluster analysis of all metabolite concentrations and strawberry samples accomplished in JMP.
# [3] = tested on: strawberry flavor intensity (consumer panel); experiment: Strawberry consumer panel: bivariate fit to strawberry flavor intensity; type: in vivo, human; conditions: for Parameter Estimates: Estimate: bivariate linear fit, X = content of the substance in strawberry fruit, Y = Flavor Intensity (FI)
# Protocol: as §1, §2
# [4] = tested on: tomato flavor intensity (consumer panel); experiment: Tomato consumer taste panel: overall tomato flavor intensity (gLMS) versus fruit chemical content; type: in vivo, human; conditions: for association with flavor intensity: univariate models; for association with tomato flavor intensity: volatiles with high odor unit values
# Protocol: (§3) Sensory analysis. Fully ripe fruit were harvested, and used for taste panels. A random subset of fruit was used for biochemical analysis. Three biological replicates, each consisting of 2-20 fruit (depending on fruit size), were assayed for each variety. […] Panelists were between the ages of 18 and 78 with a median age of 22. […] An average of 85 (range of 66-95) of these panelists evaluated between 4-6 varieties in a session. All panelists went through a training session to familiarize them with the scaling and procedures. Tomatoes were sliced into wedges (or in halves for grape/cherry types) and each panelist was given two pieces for evaluation. Panelists took a bite of each sample, chewed and swallowed it, and rated overall liking and liking for texture. They then rated the perceived intensities of sweetness, sourness, saltiness, umami sensation, bitterness and overall tomato flavor. They were free to take as many bites as necessary to complete the assessments. They were instructed to take a bite of an unsalted cracker and a sip of water between samples. Samples were presented to the panelists in a randomized order. Hedonic ratings used the hedonic gLMS. This scale assesses the liking for tomatoes in the context of all pleasure/displeasure experiences: 0=neutral, −100=strongest disliking of any kind experienced, and +100=strongest liking of any kind experienced. Sensory intensity ratings used the gLMS (7, 8, 19).This scale assesses taste and flavor sensations in the context of all sensory experience (7): 0=no sensation, 100=strongest sensation of any kind experienced. Both scales were devised to provide valid comparisons across subjects.
# (§4) Statistical analysis. The 68 chemical compounds measured in this experiment were divided into six groups based upon biochemical properties: sugars, branched chain amino acids, lipids, carotenoids, phenolics, and acids. A small number of compounds for which biosynthetic pathways are not established were assigned to one of the six classes based upon their correlations with other classified compounds. All pairwise correlations among the set of 68 compounds were calculated. Correlation coefficients were sorted using Modulated Modularity Clustering (MMC) (9) as a visual aid for identifying compounds that are closely related in this sample (FIG. 1; Table 4). Biochemical groups were examined for compounds within the group that were highly correlated and compounds that were upstream in the relevant metabolic pathways were preferentially selected.
# (§5) All analyses were performed in SAS v 9.2.
# [5] = tested on: perceived sweetness of tomato fruit (consumer panel); experiment: Tomato consumer taste panel: perceived sweetness (gLMS) regressed on fruit chemical content; type: in vivo, human; conditions: for association with sweetness: univariate models; for t: multiple regression of volatile against perceived sweetness of tomato, independent of the measures of sugar
# Protocol: as §3, §4, §5
# In conducting the multiple regression analysis on the tomato data set, the independent variables were the sugar content (glucose+fructose), and the flavor (indicated by the retronasal perception of volatiles), while the dependent variable was the perceived sweetness.
# [6] = tested on: perceived sweetness of tomato fruit (consumer panel); conditions: analysis of a volatile subset (Tieman 2012); cited from earlier work
compound,measurement,setting,value
CCCCCCCC(C)=O [821-55-6],FRUCTOSE t RATIO,[1],−0.267
same,GLUCOSE t RATIO,[1],−0.467
same,SUCROSE t RATIO,[1],1.192
same,Parameter Estimates-fit to Texture Liking: Estimate,[2],0.09508
same,Parameter Estimates: Estimate,[3],0.06252
"CCCCC/C=C/C=C/C=O [trans,trans-2,4-decadienal]",association with flavor intensity after accounting for fructose,[4],independently significant after accounting for fructose
same,association with flavor intensity,[4],associated with flavor intensity in univariate models
C=CC(C)(O)CCC=C(C)C (stereo not drawn) [78-70-6],FRUCTOSE t RATIO,[1],0.872
same,GLUCOSE t RATIO,[1],0.7
same,SUCROSE t RATIO,[1],−0.1
same,Parameter Estimates-fit to Texture Liking: Estimate,[2],0.007729
same,Parameter Estimates: Estimate,[3],0.009457
same,relationship to strawberry flavor intensity / sensory perception,"[3]; strawberry, in words",significant positive correlation with flavor intensity
CCCCCC(C)=O [110-43-0],FRUCTOSE t RATIO,[1],1.054
same,GLUCOSE t RATIO,[1],0.657
same,SUCROSE t RATIO,[1],1.899
same,Parameter Estimates-fit to Texture Liking: Estimate,[2],0.07262
same,Parameter Estimates: Estimate,[3],0.06351
CCC(C)OC(C)=O (stereo not drawn) [sec-butyl acetate],association with flavor intensity after accounting for fructose,[4]; listed as 2-butylacetate,independently significant after accounting for fructose
O=C(CO)[C@@H](O)[C@H](O)[C@H](O)CO [fructose],association with sweetness,[5]; tomato,showed evidence for association with sweetness in univariate models
same,association with flavor intensity,[4],associated with flavor intensity in univariate models
CC/C=C\CO [1576-95-0],FRUCTOSE t RATIO,[1],−0.186
same,GLUCOSE t RATIO,[1],−0.231
same,SUCROSE t RATIO,[1],−0.304
same,Parameter Estimates-fit to Texture Liking: Estimate,[2],0.1369
same,Parameter Estimates: Estimate,[3],−0.006042
CSCCC=O [methional],association with sweetness,[5]; tomato,showed evidence for association with sweetness in univariate models
same,association with flavor intensity,[4],associated with flavor intensity in univariate models
COC(=O)CC(C)C [556-24-1],FRUCTOSE t RATIO,[1],0.732
same,GLUCOSE t RATIO,[1],0.88
same,SUCROSE t RATIO,[1],0.972
same,Parameter Estimates-fit to Texture Liking: Estimate,[2],−0.03139
same,Parameter Estimates: Estimate,[3],0.009438
COc1ccccc1O [guaiacol],association with sweetness,[5]; tomato,showed evidence for association with sweetness in univariate models
c1ccc2scnc2c1 [benzothiazole],association with flavor intensity,[4],associated with flavor intensity in univariate models
CCCCCCC=O [heptaldehyde],association with sweetness,[5]; tomato,showed evidence for association with sweetness in univariate models
O=C(O)CC(O)(CC(=O)O)C(=O)O [citric acid],association with flavor intensity after accounting for fructose,[4],independently significant after accounting for fructose
same,association with flavor intensity,[4],associated with flavor intensity in univariate models
C=CC(=O)CCCCC [1-octen-3-one],association with flavor intensity after accounting for fructose,[4],independently significant after accounting for fructose
same,association with flavor intensity,[4],associated with flavor intensity in univariate models
C=CCc1ccc(O)c(OC)c1 [eugenol],association with sweetness,[5]; tomato,showed evidence for association with sweetness in univariate models
CCCCCC(=O)OC [106-70-7],FRUCTOSE t RATIO,[1],−0.321
same,GLUCOSE t RATIO,[1],−0.531
same,SUCROSE t RATIO,[1],0.802
same,Parameter Estimates-fit to Texture Liking: Estimate,[2],−0.002647
same,Parameter Estimates: Estimate,[3],0.002291
CC(C)CCO [3-methyl-1-butanol],association with sweetness after accounting for fructose,[5]; tomato,independent predictors of sweetness after accounting for fructose
same,association with sweetness,[5]; tomato,showed evidence for association with sweetness in univariate models
same,association with flavor intensity after accounting for fructose,[4]; listed as 3-methyl-1-butenol,independently significant after accounting for fructose
same,association with flavor intensity,[4],associated with flavor intensity in univariate models
same,enhancing sweetness intensity independent of fructose,[6],enhancing sweetness intensity independent of fructose
CC(C)=CCC/C(C)=C/C=O [geranial],association with sweetness after accounting for fructose,[5]; tomato,independent predictors of sweetness after accounting for fructose
same,correlation with sweetness,"[5]; tomato, direction of correlation",positively correlated with sweetness
same,contribution to perceived sweetness,"[5]; tomato, multiple regression analysis using the volatiles",positive contributor to perceived sweetness
same,association with sweetness,[5]; tomato,showed evidence for association with sweetness in univariate models
same,association with flavor intensity,[4],associated with flavor intensity in univariate models
same,enhancing sweetness intensity independent of fructose,[6],enhancing sweetness intensity independent of fructose
CCCCCCO [111-27-3],FRUCTOSE t RATIO,[1],−1.253
same,GLUCOSE t RATIO,[1],−1.481
same,SUCROSE t RATIO,[1],−0.542
same,Parameter Estimates-fit to Texture Liking: Estimate,[2],−0.01204
same,Parameter Estimates: Estimate,[3],−0.001886
"CCCCOC(C)=O [123-86-4, butyl acetate]",association with sweetness,[5]; tomato,showed evidence for association with sweetness in univariate models
same,association with flavor intensity,[4],associated with flavor intensity in univariate models
CC1C=CC2C(C1)C2(C)C (stereo not drawn) [4-carene],association with sweetness,[5]; tomato,showed evidence for association with sweetness in univariate models
CC/C=C\CCO [cis-3-hexen-1-ol],association with sweetness,[5]; tomato,showed evidence for association with sweetness in univariate models
same,association with flavor intensity after accounting for fructose,[4],independently significant after accounting for fructose
same,association with flavor intensity,[4],associated with flavor intensity in univariate models
"CCCCC(=O)OCC [539-82-2, ethyl valerate]",enhancement of perceived intensity of sweetness independent of sugars,[1]; in words,show evidence of enhancing perceived sweetness intensity independent of individual sugars
CCCCCCCCC=O [nonyl aldehyde],t,[5],1.148
"CCC/C=C/C=O [6728-26-3, (2E)-2-hexenal or trans-2-hexenal]",t,[5],0.051
same,FRUCTOSE t RATIO,[1],3.349
same,GLUCOSE t RATIO,[1],3.314
same,SUCROSE t RATIO,[1],−0.816
same,Parameter Estimates-fit to Texture Liking: Estimate,[2],0.000185
same,Parameter Estimates: Estimate,[3],0.0003625
"CCCCCCCC(=O)OCC [106-32-1, ethyl octanoate]",negatively related to sweetness: sugar(s) of which the effect is independent,[1]; compounds negatively related to sweetness independent of at least one of the sugars,exclusively independent of glucose
O=CCc1ccccc1 [phenylacetaldehyde],association with sweetness,[5]; tomato,showed evidence for association with sweetness in univariate models
same,association with flavor intensity,[4],associated with flavor intensity in univariate models
same,association with tomato flavor intensity,[4],not associated with tomato flavor intensity
C/C=C/C(=O)C1=C(C)C=CCC1(C)C [β-damascenone],association with tomato flavor intensity,[4],not associated with tomato flavor intensity
